In patent US12162867B2, “Inhibitors of RNA helicase DHX9 and uses thereof” (ACCENT THERAPEUTICS, INC., priority 2022, dated 2024):
Read-outs that look alike come from different tables or passages of the source.

Test system: circBRIP1 in HCT116 cells
Test: DHX9 circBRIP1 cellular target engagement SYBR Green assay (qPCR)
Assay type: cell-based
Conditions: Homo sapiens, HCT-116, circBRIP1, HCT116 cells, read-out: DHX9 Cellular Target Engagement EC50

SMILES | EC50 (SyBr assay (marked ^+)) [nM] | EC50 (^+ SyBr assay was used) [nM]
CN1CCN(c2csc(C(=O)Nc3cc(Cl)cc(NS(C)(=O)=O)c3)c2)C1=O [Example 431] | – | 447
CCS(=O)(=O)Nc1cc(Cl)cc(NC(=O)c2cc(-c3ncc(F)cn3)c(C3CC3)s2)c1 [Example 449] | – | 860
CS(=O)(=O)Nc1cc(Cl)cc(NC(=O)c2cc3c(C(F)(F)F)cccc3s2)c1 [Example 323] | > 10000 | –
CS(=O)(=O)Nc1cc(Cl)cc(NC(=O)c2cc3cnccc3s2)c1 [Example 288] | 7800 | –
CS(=O)(=O)Nc1cc(Br)cc(NC(=O)c2ccc3c(c2)[nH]c(=O)n3Cc2ccccc2)c1 [Example 99, 1-benzyl-N-(3-bromo-5-(methylsulfonamido)phenyl)-2-oxo-2,3-dihydro-1H-benzo[d]imidazole-5-carboxamide] | > 10000 | –
CS(=O)(=O)Nc1cc(Cl)cc(NC(=O)c2cnn([C@H]3CC[C@H]3O)c2)c1 (single isomer, unassigned) [Example 306b] | > 10000 | –
CS(=O)(=O)Nc1cc(Cl)cc(NC(=O)c2cnn(-c3ccccc3Oc3ncccn3)c2)c1 [Example 263] | > 10000 | –
CS(=O)(=O)Nc1cc(Cl)cc(NC(=O)c2cc(N3CCN(CC(F)(F)F)CC3)cs2)c1 [Example 246] | 3930 | –
CS(=O)(=O)Nc1cc(Cl)cc(NC(=O)c2cc(C(=O)N3CC4(CNC4)C3)n(-c3ccccn3)c2)c1 [Example 643] | – | > 10000
CS(=O)(=O)Nc1cc(Cl)cc(NC(=O)c2cc(-n3cc(F)cn3)cs2)c1 [Example 440] | – | 370
CS(=O)(=O)Nc1cc(Cl)cc(NC(=O)c2cnn(C3CCCC3)c2)c1 [Example 309] | 3730 | –
Cc1cn2cc(C(=O)Nc3cc(Cl)cc(NS(C)(=O)=O)c3)cc2c(C)n1 [Example 322] | > 10000 | –
CS(=O)(=O)Nc1cc(Cl)cc(NC(=O)c2cc(C(=O)Nc3ccccc3)cs2)c1 [Example 166, N2-(3-chloro-5-(methylsulfonamido)phenyl)-N4-phenylthiophene-2,4-dicarboxamide] | 2390 | –
COc1cccc2cc(C(=O)Nc3cc(Cl)cc(NS(C)(=O)=O)c3)sc12 [Example 303] | > 10000 | –
Cc1cccnc1-c1cc(C(=O)Nc2cc(F)cc(NS(C)(=O)=O)c2)sc1C [Example 333] | 421 | –
CC(=O)N1CCN(c2ccc(-n3cc(C(=O)Nc4cc(Br)cc(NS(C)(=O)=O)c4)cn3)nc2)CC1 [Example 86, 1-(5-(4-acetylpiperazin-1-yl)pyridin-2-yl)-N-(3-bromo-5-(methylsulfonamido)phenyl)-1H-pyrazole-4-carboxamide] | 585 | –
Cc1sc(C(=O)Nc2cc(Cl)cc(NS(C)(=O)=O)c2)cc1N1C(=O)N(c2ccccn2)C(C)(C)C1=O [Example 685] | – | 769
Cc1ccc2cc(C(=O)Nc3cc(Cl)cc(NS(C)(=O)=O)c3)cn2c1 [Example 300] | 3940 | –
CS(=O)(=O)Nc1cc(Cl)cc(NC(=O)c2cc(-c3ccccc3)cs2)c1 [Example 75] | 1640 | –
CN1CCN(c2ccc(-n3cc(C(=O)Nc4cc(Br)cc(NS(C)(=O)=O)c4)cn3)nc2)CC1=O [Example 88] | > 10000 | –

SMILES | EC50 (SyBr assay (marked ^+)) [nM] | EC50 (^+ SyBr assay was used) [nM]
Cc1cc(C(=O)Nc2cc(Cl)cc(NS(C)(=O)=O)c2)cn1-c1ccc(N2CCCC2)cn1 [Example 270] | 101 | –
CS(=O)(=O)Nc1cc(Cl)cc(NC(=O)c2cc3ccc(Cl)cc3s2)c1 [Example 293] | > 10000 | –
Cn1nc(C(=O)Nc2cc(Cl)cc(NS(C)(=O)=O)c2)cc1-c1ccccc1OCc1ccccc1 [Example 138, 5-(2-(benzyloxy)phenyl)-N-(3-chloro-5-(methylsulfonamido)phenyl)-1-methyl-1H-pyrazole-3-carboxamide] | > 10000 | –
CS(=O)(=O)Nc1cc(Br)cc(NC(=O)c2cnn(-c3ncccc3N)c2)c1 [Example 162, 1-(3-aminopyridin-2-yl)-N-(3-bromo-5-(methylsulfonamido)phenyl)-1H-pyrazole-4-carboxamide] | 138 | –
CN(C)C(=O)N1CCN(c2ccc(-n3cc(C(=O)Nc4cc(Cl)cc(NS(C)(=O)=O)c4)cn3)nc2)CC1 [Example 89] | 667 | –
CS(=O)(=O)Nc1cc(Cl)cc(NC(=O)c2cc(-c3ncc(F)cn3)cs2)c1 [Example 338] | 126 | –
CSc1cnc(-n2cc(C(=O)Nc3cc(Cl)cc(NS(C)(=O)=O)c3)cc2C)nc1 [Example 658] | – | 425
Cc1sc(C(=O)Nc2cc(Cl)cc(NS(C)(=O)=O)c2)cc1N1CCCC1=O [Example 434] | – | 2320
CS(=O)(=O)Nc1cc(Cl)cc(NC(=O)c2cc(Br)cs2)c1 [Example 241] | 3680 | –
CS(=O)(=O)Nc1cc(Cl)cc(NC(=O)c2cc3cnccn3c2)c1 [Example 330] | 4870 | –
Cc1cccnc1-c1csc(C(=O)Nc2cc(F)cc(NS(C)(=O)=O)c2)c1 [Example 334] | 251 | –
CS(=O)(=O)Nc1cc(Cl)cc(NC(=O)c2cccc(-c3ccnc(Cl)c3)c2)c1 [Example 102, N-(3-chloro-5-(methylsulfonamido)phenyl)-3-(2-chloropyridin-4-yl)benzamide] | > 30000 | –
CS(=O)(=O)Nc1cc(Cl)cc(NC(=O)c2cnn(-c3ncccc3OCc3nccs3)c2)c1 [Example 205] | 841 | –
CS(=O)(=O)Nc1cc(Cl)cc(NC(=O)c2cnn(-c3ncccc3OCc3cnco3)c2)c1 [Example 66] | 4870 | –
CS(=O)(=O)Nc1cc(Br)cc(NC(=O)c2cnn(-c3ccccc3C(O)C(F)(F)F)c2)c1 (centres unmarked) [Example 103, N-(3-bromo-5-(methylsulfonamido)phenyl)-1-(2-(2,2,2-trifluoro-1-hydroxyethyl)phenyl)-1H-pyrazole-4-carboxamide] | 5310 | –
CC(C)(C)OC(=O)N1CC(n2cc(C(=O)Nc3cc(Cl)cc(NS(C)(=O)=O)c3)cc2-c2ncc(F)cn2)C1 [Example 645] | – | 1260
CS(=O)(=O)Nc1cc(Cl)cc(NC(=O)c2cnn(-c3ncccc3OCc3cncnc3)c2)c1 [Example 188] | 1460 | –
CS(=O)(=O)Nc1cc(Cl)cc(NC(=O)c2cc(C(=O)N3CCCCC3)n(-c3ccccn3)c2)c1 [Example 644] | – | 8720
CC(C)(O)c1cc(C(=O)Nc2cc(Cl)cc(NS(C)(=O)=O)c2)cn1-c1ccccn1 [Example 650] | – | 859

Other lines, results leading:

EC50 (SyBr assay (marked ^+)) [nM] | EC50 (^+ SyBr assay was used) [nM] | SMILES
3540 | – | CS(=O)(=O)Nc1cc(Cl)cc(NC(=O)c2cnn(-c3ccccc3Oc3cccnc3)c2)c1 [Example 264]
7250 | – | CS(=O)(=O)Nc1cc(Cl)cc(NC(=O)c2cc3ccncc3s2)c1 [Example 230]
– | 291 | CS(=O)(=O)Nc1cc(Cl)cc(NC(=O)c2cnn(-c3ncc(N4CC5(COC5)C4)cc3O)c2)c1 [Example 691]
2930 | – | CS(=O)(=O)Nc1cc(Br)cc(NC(=O)c2cccc(-n3cccn3)c2)c1 [Example 118]
3870 | – | CS(=O)(=O)Nc1cc(Cl)cc(NC(=O)c2cccc(-n3cccn3)c2)c1 [Example 117]
> 10000 | – | CN1CCN(c2cnc(-n3cc(C(=O)Nc4cc(Cl)cc(NS(C)(=O)=O)c4)cn3)cn2)CC1=O [Example 184]
– | 124 | Cc1cc(C(=O)Nc2cc(Cl)cc(NS(C)(=O)=O)c2)cn1-c1ncc(OC2COC2)cn1 [Example 669]
4980 | – | Cc1cccn2cc(C(=O)Nc3cc(Cl)cc(NS(C)(=O)=O)c3)cc12 [Example 329]
3090 | – | CS(=O)(=O)Nc1cc(Cl)cc(NC(=O)c2cc(-c3ccccc3)n(CC(F)(F)F)c2)c1 [Example 80]
> 10000 | – | CS(=O)(=O)Nc1cc(Cl)cc(NC(=O)c2cnn(-c3ncccc3-c3cncnc3)c2)c1 [Example 387]
> 10000 | – | CS(=O)(=O)Nc1cc(Cl)cc(NC(=O)c2cc3ccc(Cl)cn3c2)c1 [Example 299]
201 | – | CS(=O)(=O)Nc1cc(Br)cc(NC(=O)c2cc(-n3cccn3)cs2)c1 [Example 60]
884 | – | CS(=O)(=O)Nc1cc(Br)cc(NC(=O)c2cnn(-c3ccc(F)cn3)c2)c1 [Example 39]
2610 | – | CS(=O)(=O)Nc1cc(Cl)cc(NC(=O)c2cnn(-c3ccccc3-c3cncc(F)c3)c2)c1 [Example 257]
– | 1150 | COc1cnn(-c2csc(C(=O)Nc3cc(Cl)cc(NS(C)(=O)=O)c3)c2)c1 [Example 435]
1330 | – | Cc1sc(C(=O)Nc2cc(Cl)cc(NS(C)(=O)=O)c2)cc1-c1ncccc1CC(=O)N(C)C [Example 385]
2410 | – | CS(=O)(=O)Nc1cc(Cl)cc(NC(=O)c2cc3c(=O)[nH]ccn3c2)c1 [Example 301]
> 10000 | – | CN1CCC(n2cc(C(=O)Nc3cc(Cl)cc(NS(C)(=O)=O)c3)cn2)CC1=O (centres unmarked) [Example 307]
645 | – | Cc1sc(C(=O)Nc2cc(Cl)cc(NS(C)(=O)=O)c2)cc1-c1cn(Cc2ccccc2)nn1 [Example 235]
2260 | – | CS(=O)(=O)Nc1cc(Cl)cc(NC(=O)c2cc(C(F)(F)F)n(-c3ccc(F)cn3)c2)c1 [Example 267]
> 10000 | – | CS(=O)(=O)Nc1cc(Cl)cc(NC(=O)c2cnn(C3CCNCC3)c2)c1 [Example 145, N-(3-chloro-5-(methylsulfonamido)phenyl)-1-(piperidin-4-yl)-1H-pyrazole-4-carboxamide]
153 | – | CCS(=O)(=O)Nc1cc(Cl)cc(NC(=O)c2cc(-c3ncc(F)cn3)c(C)s2)c1 [Example 344]
> 10000 | – | Cc1cc(C(=O)Nc2cc(Cl)cc(NS(=O)(=O)C(F)F)c2)cn1-c1ccc(N2CCOCC2)cn1 [Example 248]
> 10000 | – | CS(=O)(=O)Nc1cc(Cl)cc(NC(=O)c2cc3cc(C(F)(F)F)ccc3s2)c1 [Example 326]
3330 | – | CS(=O)(=O)Nc1cc(Cl)cc(NC(=O)c2cc3c(F)cccn3c2)c1 [Example 305]
7440 | – | CCS(=O)(=O)Nc1cc(F)cc(NC(=O)c2cc(-c3ccccn3)cs2)c1 [Example 113]
> 10000 | – | CP(C)(=O)c1cccnc1-n1cc(C(=O)Nc2cc(Cl)cc(NS(C)(=O)=O)c2)cn1 [Example 201]
> 10000 | – | CN1CCN(c2cnc(-n3cc(C(=O)Nc4cc(Cl)cc(NS(C)(=O)=O)c4)cn3)c(OCc3cccnc3)c2)CC1=O [Example 193]
> 10000 | – | CS(=O)(=O)Nc1cc(Cl)cc(NC(=O)c2cnn(CCCO)c2)c1 [Example 126, N-(3-chloro-5-(methylsulfonamido)phenyl)-1-(3-hydroxypropyl)-1H-pyrazole-4-carboxamide]
